Like-named read-outs stand apart in the source and are kept apart here.
Assays:
E. coli DH5α/pLBII = experiment: Broth microdilution MIC assay, empty vector control strain; assay type: cell-based; conditions: Escherichia coli, read-out: E. coli DH5α/pLBII Microbiological Activity (MIC)
Description: (§1) To determine the ability of test compounds to potentiate the inhibition of the growth of bacterial strains, classic cell based broth microdilution MIC assays were employed. MIC assays are performed according to CLSI methods except where otherwise noted (CLSI, 2011 and CLSI, 2009). The reference strain S. aureus ATCC 29213 and the hyper-permeable E. coli 901C were used to determine the ability of the PBP compounds to inhibit bacterial growth. Briefly, cryo-preserved bacterial cultures of clinical strains are streaked for isolation on appropriate agar medium, in this case Mueller Hinton II agar. Following incubation to allow formation of colonies these plates are sealed with parafilm and stored refrigerated for up to two weeks. For preparation of assay inocula and to ensure low variability, at least 5 colonies are picked from the agar plates with an inoculating loop and aseptically transferred to a culture tube containing 3 mL of Mueller-Hinton Broth (supplemented with divalent cations to required levels based on Manufacturers' certification). The broth culture is grown for 3-5 hours at 37° C. with shaking at 200 rpm. Meanwhile, 2-fold serial dilutions of test compounds are conducted in a 96 well plate with a final volume of 75 μL per well at 2-fold the final desired concentration. After the dilution plates are set up the growing cultures are then diluted in a cuvette containing MH II broth and the optical density is measured at 600 nm. Inocula are diluted such that 75 μL of this culture in Mueller-Hinton Broth results in a starting bacterial concentration of 5×10^5 CFU/mL when added to the dilution plates. The plates are incubated 16-20 hours at 37° C. The MIC is read visually as the lowest concentration well with no bacterial growth.
(§2) To determine if test compounds were affected by CTX-M15, the most abundant extended spectrum β-lactamase in clinical settings worldwide, the inhibition of the growth of an engineered strain of Escherichia coli harboring CTX-M15 was tested. This strain was constructed by cloning the gene encoding CTX-M15 into the NdeI and BamHI restriction endonuclease sites of plasmid pLBII, placing the gene(s) under the control of the Lac promoter. The constructed expression plasmid for CTX-M15 was used to transform competent E. coli DH5a cells to make the engineered strain, including an empty pLBII vector control strain. The classic cell based broth microdilution MIC assay was employed as described above with the addition of control antibiotics, known to be degraded by β-lactamases (Ceftazidime, piperacillin and piperacillin+tazobactam).

[1] = system: E. coli DH5α/pLBII-CTX-M15; experiment: Broth microdilution MIC assay, engineered strain producing CTX-M15; assay type: cell-based, Escherichia coli; conditions: Escherichia coli, read-out: E. coli DH5α/pLBII-CTX-M15 Microbiological Activity (MIC)
Description: as §1, §2

[2] = system: hyper-permeable E. coli 901C; experiment: Broth microdilution MIC assay; assay type: cell-based; conditions: Escherichia coli, read-out: E. coli 901C MIC
Description: as §1

S. aureus ATCC 29213 = experiment: Broth microdilution MIC assay; assay type: cell-based; conditions: Staphylococcus aureus
Description: as §1

[3] = ATCC29213, broth microdilution, 16-20 hours at 37° C., read-out: S. aureus 29213 MIC

CCN1CCN(C(=O)NC(C(=O)N[C@@H]2Cc3cccc(C(=O)O)c3OB2O)c2csc(N)n2)C(=O)C1=O (stereo partly drawn) [Example 33, (3S)-3-(2-(2-aminothiazol-4-yl)-2-(4-ethyl-2,3-dioxopiperazine-1-carboxamido)acetamido)-2-hydroxy-3,4-dihydro-2H-benzo[e][1,2]oxaborinine-8-carboxylic acid]
MIC (E. coli DH5α/pLBII): 128 to 256 µg/mL
MIC [1]: 128 to 256 µg/mL
MIC [2]: < 64 µg/mL
MIC (S. aureus ATCC 29213; [3]): > 128 µg/mL

Nc1nc([C@H](N)C(=O)N[C@H]2Cc3cccc(C(=O)O)c3OB2O)cs1 [Example 9, (R)-3-((S)-2-amino-2-(2-aminothiazol-4-yl)acetamido)-2-hydroxy-3,4-dihydro-2H-benzo[e][1,2]oxaborinine-8-carboxylic acid]
MIC (E. coli DH5α/pLBII): 128 to 256 µg/mL
MIC [1]: 128 to 256 µg/mL
MIC [2]: > 128 µg/mL
MIC (S. aureus ATCC 29213; [3]): > 128 µg/mL

CCCN1CCN(C(=O)NC(C(=O)N[C@H]2Cc3cccc(C(=O)O)c3OB2O)c2csc(N)n2)C(=O)C1=O (stereo partly drawn) [Example 51, (3R)-3-(2-(2-aminothiazol-4-yl)-2-(2,3-dioxo-4-propylpiperazine-1-carboxamido)acetamido)-2-hydroxy-3,4-dihydro-2H-benzo[e][1,2]oxaborinine-8-carboxylic acid]
MIC (E. coli DH5α/pLBII): 8 to 16 µg/mL
MIC [1]: 8 to 16 µg/mL
MIC [2]: < 64 µg/mL
MIC (S. aureus ATCC 29213; [3]): 64 to 128 µg/mL

CCN1CCN(C(=O)N[C@H](Cc2c[nH]cn2)C(=O)N[C@H]2Cc3cccc(C(=O)O)c3OB2O)C(=O)C1=O [Example 40, (R)-3-((R)-2-(4-ethyl-2,3-dioxopiperazine-1-carboxamido)-3-(1H-imidazol-4-yl)propanamido)-2-hydroxy-3,4-dihydro-2H-benzo[e][1,2]oxaborinine-8-carboxylic acid]
MIC (E. coli DH5α/pLBII): 128 to 256 µg/mL
MIC [1]: 128 to 256 µg/mL
MIC [2]: 64 to 128 µg/mL
MIC (S. aureus ATCC 29213; [3]): > 128 µg/mL

COc1cc(C(=O)NC(C(=O)N[C@H]2Cc3cccc(C(=O)O)c3OB2O)c2csc(N)n2)ccn1 (stereo partly drawn) [Example 41, (3R)-3-(2-(2-aminothiazol-4-yl)-2-(2-methoxyisonicotinamido)acetamido)-2-hydroxy-3,4-dihydro-2H-benzo[e][1,2]oxaborinine-8-carboxylic acid]
MIC (E. coli DH5α/pLBII): > 512 µg/mL
MIC [1]: > 512 µg/mL
MIC [2]: < 64 µg/mL
MIC (S. aureus ATCC 29213; [3]): 64 to 128 µg/mL

COc1ccc([C@@H](N)C(=O)N[C@H]2Cc3cccc(C(=O)O)c3OB2O)cc1 [Example 4, (R)-3-((R)-2-amino-2-(4-methoxyphenyl)acetamido)-2-hydroxy-3,4-dihydro-2H-benzo[e][1,2]oxaborinine-8-carboxylic acid]
MIC (E. coli DH5α/pLBII): > 512 µg/mL
MIC [1]: > 512 µg/mL
MIC [2]: > 128 µg/mL
MIC (S. aureus ATCC 29213; [3]): > 128 µg/mL

Nc1nc(C(NC(=O)C2CCCC(=O)N2)C(=O)N[C@H]2Cc3cccc(C(=O)O)c3OB2O)cs1 (stereo partly drawn) [Example 68, (3R)-3-(2-(2-aminothiazol-4-yl)-2-(6-oxopiperidine-2-carboxamido)acetamido)-2-hydroxy-3,4-dihydro-2H-benzo[e][1,2]oxaborinine-8-carboxylic acid]
MIC (E. coli DH5α/pLBII): 128 to 256 µg/mL
MIC [1]: 128 to 256 µg/mL
MIC [2]: < 64 µg/mL
MIC (S. aureus ATCC 29213; [3]): > 128 µg/mL

COc1ccc(C(=O)NC(C(=O)N[C@H]2Cc3cccc(C(=O)O)c3OB2O)c2csc(N)n2)c(=O)[nH]1 (stereo partly drawn) [Example 46, (3R)-3-(2-(2-aminothiazol-4-yl)-2-(6-methoxy-2-oxo-1,2-dihydropyridine-3-carboxamido)acetamido)-2-hydroxy-3,4-dihydro-2H-benzo[e][1,2]oxaborinine-8-carboxylic acid]
MIC (E. coli DH5α/pLBII): 128 to 256 µg/mL
MIC [1]: 128 to 256 µg/mL
MIC [2]: < 64 µg/mL
MIC (S. aureus ATCC 29213; [3]): > 128 µg/mL

CCN1CCN(C(=O)N[C@H](CO)C(=O)N[C@H]2Cc3cccc(C(=O)O)c3OB2O)C(=O)C1=O [Example 35, (R)-3-((R)-2-(4-Ethyl-2,3-dioxopiperazine-1-carboxamido)-3-hydroxy-propanamido)-2-hydroxy-3,4-dihydro-2H-benzo[e][1,2]oxaborinine-8-carboxylic acid]
MIC (E. coli DH5α/pLBII): 32 to 64 µg/mL
MIC [1]: 32 to 64 µg/mL
MIC [2]: < 64 µg/mL
MIC (S. aureus ATCC 29213; [3]): > 128 µg/mL

CCCN1CCN(C(=O)NC(C(=O)N[C@H]2Cc3cccc(C(=O)O)c3OB2O)c2csc(NC(=O)OCc3ccccc3)n2)C(=O)C1=O (stereo partly drawn) [Example 56, (3R)-3-(2-(2-(((benzyloxy)carbonyl)amino)thiazol-4-yl)-2-(2,3-dioxo-4-propylpiperazine-1-carboxamido)acetamido)-2-hydroxy-3,4-dihydro-2H-benzo[e][1,2]oxaborinine-8-carboxylic acid]
MIC (E. coli DH5α/pLBII): > 512 µg/mL
MIC [1]: > 512 µg/mL
MIC [2]: < 64 µg/mL
MIC (S. aureus ATCC 29213; [3]): 64 to 128 µg/mL

Nc1nc(C(NS(=O)(=O)c2cccnc2)C(=O)N[C@H]2Cc3cccc(C(=O)O)c3OB2O)cs1 (stereo partly drawn) [Example 27, (3R)-3-(2-(2-aminothiazol-4-yl)-2-(pyridine-3-sulfonamido)acetamido)-2-hydroxy-3,4-dihydro-2H-benzo[e][1,2]oxaborinine-8-carboxylic acid]
MIC (E. coli DH5α/pLBII): 128 to 256 µg/mL
MIC [1]: 128 to 256 µg/mL
MIC [2]: < 64 µg/mL
MIC (S. aureus ATCC 29213; [3]): > 128 µg/mL

Nc1nc(C(NC(=O)CO)C(=O)N[C@H]2Cc3cccc(C(=O)O)c3OB2O)cs1 (stereo partly drawn) [Example 29, (3R)-3-(2-(2-aminothiazol-4-yl)-2-(2-hydroxyacetamido)acetamido)-2-hydroxy-3,4-dihydro-2H-benzo[e][1,2]oxaborinine-8-carboxylic acid]
MIC (E. coli DH5α/pLBII): 32 to 64 µg/mL
MIC [1]: 32 to 64 µg/mL
MIC [2]: < 64 µg/mL
MIC (S. aureus ATCC 29213; [3]): > 128 µg/mL

Cn1ccc(C(=O)NC(C(=O)N[C@H]2Cc3cccc(C(=O)O)c3OB2O)c2csc(N)n2)cc1=O (stereo partly drawn) [Example 42, (3R)-3-(2-(2-aminothiazol-4-yl)-2-(1-methyl-2-oxo-1,2-dihydropyridine-4-carboxamido)acetamido)-2-hydroxy-3,4-dihydro-2H-benzo[e][1,2]oxaborinine-8-carboxylic acid]
MIC (E. coli DH5α/pLBII): 32 to 64 µg/mL
MIC [1]: 32 to 64 µg/mL
MIC [2]: < 64 µg/mL
MIC (S. aureus ATCC 29213; [3]): 64 to 128 µg/mL

Nc1nc(C(NC(=O)c2cscn2)C(=O)N[C@H]2Cc3cccc(C(=O)O)c3OB2O)cs1 (stereo partly drawn) [Example 16, (3R)-3-(2-(2-aminothiazol-4-yl)-2-(thiazole-4-carboxamido)acetamido)-2-hydroxy-3,4-dihydro-2H-benzo[e][1,2]oxaborinine-8-carboxylic acid]
MIC (E. coli DH5α/pLBII): 128 to 256 µg/mL
MIC [1]: 128 to 256 µg/mL
MIC [2]: < 64 µg/mL
MIC (S. aureus ATCC 29213; [3]): 64 to 128 µg/mL

Nc1nc(C(NC(=O)N2CCCN(O)S2(=O)=O)C(=O)N[C@H]2Cc3cccc(C(=O)O)c3OB2O)cs1 (stereo partly drawn) [Example 77, (3R)-3-(2-(2-aminothiazol-4-yl)-2-(6-hydroxy-1,1-dioxido-1,2,6-thiadiazinane-2-carboxamido)acetamido)-2-hydroxy-3,4-dihydro-2H-benzo[e][1,2]oxaborinine-8-carboxylic acid]
MIC (E. coli DH5α/pLBII): 32 to 64 µg/mL
MIC [1]: 32 to 64 µg/mL
MIC [2]: < 64 µg/mL
MIC (S. aureus ATCC 29213; ATCC29213, read-out: S. aureus 29213 MIC): > 128 µg/mL

CCN1CCN(C(=O)N[C@@H](C)C(=O)N[C@H]2Cc3cccc(C(=O)O)c3OB2O)C(=O)C1=O [Example 31, (R)-3-((S)-2-(4-Ethyl-2,3-dioxopiperazine-1-carboxamido)propanamido)-2-hydroxy-3,4-dihydro-2H-benzo[e][1,2]oxaborinine-8-carboxylic acid]
MIC (E. coli DH5α/pLBII): > 512 µg/mL
MIC [1]: > 512 µg/mL
MIC [2]: > 128 µg/mL
MIC (S. aureus ATCC 29213; [3]): > 128 µg/mL

— patent US11332485B2, “Penicillin-binding protein inhibitors” (priority 2017, dated 2022)
